The source made the active and inactive calls. The rule behind the calls is not given here.
What was measured:
[1] = tested on: Mus musculus; assay: Toxicity in Balb/c nude mouse xenografted with human HCT116 cells assessed as death at 25 mg/kg, po q2d for 8 days; type: organism-based, HCT-116; details: in vivo, 192 h
[2] = tested on: A-375; assay: Antiproliferative activity against human A375 cells after 72 hrs by MTT assay; type: functional, cell-based; details: A-375, 72 h
[3] = molecular target: Histone deacetylase 4 (Homo sapiens, UniProt P56524); assay: Inhibition of recombinant HDAC4 (unknown origin) using AMC labeled AC-peptide as substrate incubated for 1 hr by fluorescence analysis
Sequence of Histone deacetylase 4 (P56524 whole entry): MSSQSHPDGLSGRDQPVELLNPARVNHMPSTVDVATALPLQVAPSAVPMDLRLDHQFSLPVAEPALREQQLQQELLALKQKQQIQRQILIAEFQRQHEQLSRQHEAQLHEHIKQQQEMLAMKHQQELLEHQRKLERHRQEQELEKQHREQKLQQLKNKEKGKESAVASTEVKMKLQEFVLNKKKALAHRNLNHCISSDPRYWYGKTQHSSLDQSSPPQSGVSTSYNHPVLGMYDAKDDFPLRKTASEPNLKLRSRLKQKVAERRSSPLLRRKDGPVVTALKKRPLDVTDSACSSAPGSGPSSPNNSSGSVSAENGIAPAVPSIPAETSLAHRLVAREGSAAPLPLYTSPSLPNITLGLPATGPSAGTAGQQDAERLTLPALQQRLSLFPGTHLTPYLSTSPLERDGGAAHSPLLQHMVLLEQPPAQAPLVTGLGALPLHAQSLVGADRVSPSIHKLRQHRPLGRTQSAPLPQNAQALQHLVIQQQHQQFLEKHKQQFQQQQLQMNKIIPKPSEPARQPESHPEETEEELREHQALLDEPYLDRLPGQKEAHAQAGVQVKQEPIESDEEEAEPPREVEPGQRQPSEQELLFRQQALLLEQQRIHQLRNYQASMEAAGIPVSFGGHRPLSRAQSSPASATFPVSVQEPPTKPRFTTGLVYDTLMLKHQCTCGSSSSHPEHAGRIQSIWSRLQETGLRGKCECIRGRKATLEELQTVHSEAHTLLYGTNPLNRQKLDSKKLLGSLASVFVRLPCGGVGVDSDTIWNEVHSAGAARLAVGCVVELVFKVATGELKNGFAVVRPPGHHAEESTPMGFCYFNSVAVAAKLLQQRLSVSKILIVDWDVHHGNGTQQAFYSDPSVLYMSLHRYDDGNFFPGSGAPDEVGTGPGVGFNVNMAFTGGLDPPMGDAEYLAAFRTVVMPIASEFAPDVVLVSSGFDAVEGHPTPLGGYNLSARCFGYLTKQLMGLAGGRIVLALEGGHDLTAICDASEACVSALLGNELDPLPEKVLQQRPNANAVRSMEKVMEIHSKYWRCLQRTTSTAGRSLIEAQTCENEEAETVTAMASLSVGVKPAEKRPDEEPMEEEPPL

[4] = molecular target: T1, Histone deacetylase 5 (Homo sapiens, UniProt Q9UQL6); assay: Inhibition of recombinant HDAC5 (unknown origin) using AMC labeled AC-peptide as substrate at 10 uM incubated for 1 hr by fluorescence analysis
T1 sequence (Q9UQL6 whole entry): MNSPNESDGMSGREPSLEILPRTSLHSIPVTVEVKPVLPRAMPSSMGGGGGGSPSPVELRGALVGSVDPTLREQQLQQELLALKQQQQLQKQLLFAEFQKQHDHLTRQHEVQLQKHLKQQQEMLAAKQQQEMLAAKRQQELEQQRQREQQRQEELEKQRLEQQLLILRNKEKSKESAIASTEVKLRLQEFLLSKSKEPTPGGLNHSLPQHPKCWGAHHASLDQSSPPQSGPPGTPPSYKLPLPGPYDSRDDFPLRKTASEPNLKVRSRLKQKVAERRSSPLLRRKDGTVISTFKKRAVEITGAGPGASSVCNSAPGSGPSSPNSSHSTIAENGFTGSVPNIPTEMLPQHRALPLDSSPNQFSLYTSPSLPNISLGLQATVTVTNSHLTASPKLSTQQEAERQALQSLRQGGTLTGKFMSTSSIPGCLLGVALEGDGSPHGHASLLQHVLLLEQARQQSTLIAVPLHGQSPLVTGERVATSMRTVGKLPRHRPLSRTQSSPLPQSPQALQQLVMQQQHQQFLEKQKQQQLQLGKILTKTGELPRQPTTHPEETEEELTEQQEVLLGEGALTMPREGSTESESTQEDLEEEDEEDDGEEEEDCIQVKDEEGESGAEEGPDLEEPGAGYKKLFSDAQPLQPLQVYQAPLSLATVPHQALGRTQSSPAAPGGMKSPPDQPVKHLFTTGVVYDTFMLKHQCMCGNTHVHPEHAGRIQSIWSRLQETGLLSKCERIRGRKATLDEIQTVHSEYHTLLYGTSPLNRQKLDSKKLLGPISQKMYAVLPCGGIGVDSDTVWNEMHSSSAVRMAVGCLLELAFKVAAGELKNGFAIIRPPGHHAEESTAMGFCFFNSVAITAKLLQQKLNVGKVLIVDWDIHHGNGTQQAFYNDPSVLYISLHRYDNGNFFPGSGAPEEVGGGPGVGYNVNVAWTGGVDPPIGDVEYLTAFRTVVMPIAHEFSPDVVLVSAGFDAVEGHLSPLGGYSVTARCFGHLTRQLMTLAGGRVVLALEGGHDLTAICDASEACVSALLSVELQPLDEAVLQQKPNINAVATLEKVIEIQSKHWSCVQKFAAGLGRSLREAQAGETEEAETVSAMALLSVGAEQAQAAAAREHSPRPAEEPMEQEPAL

[5] = molecular target: Histone deacetylase 7 (Homo sapiens) (UniProt Q8WUI4); assay: Inhibition of recombinant HDAC7 (unknown origin) using AMC labeled AC-peptide as substrate at 10 uM incubated for 1 hr by fluorescence analysis
Sequence of Histone deacetylase 7 (Homo sapiens) (Q8WUI4 whole entry): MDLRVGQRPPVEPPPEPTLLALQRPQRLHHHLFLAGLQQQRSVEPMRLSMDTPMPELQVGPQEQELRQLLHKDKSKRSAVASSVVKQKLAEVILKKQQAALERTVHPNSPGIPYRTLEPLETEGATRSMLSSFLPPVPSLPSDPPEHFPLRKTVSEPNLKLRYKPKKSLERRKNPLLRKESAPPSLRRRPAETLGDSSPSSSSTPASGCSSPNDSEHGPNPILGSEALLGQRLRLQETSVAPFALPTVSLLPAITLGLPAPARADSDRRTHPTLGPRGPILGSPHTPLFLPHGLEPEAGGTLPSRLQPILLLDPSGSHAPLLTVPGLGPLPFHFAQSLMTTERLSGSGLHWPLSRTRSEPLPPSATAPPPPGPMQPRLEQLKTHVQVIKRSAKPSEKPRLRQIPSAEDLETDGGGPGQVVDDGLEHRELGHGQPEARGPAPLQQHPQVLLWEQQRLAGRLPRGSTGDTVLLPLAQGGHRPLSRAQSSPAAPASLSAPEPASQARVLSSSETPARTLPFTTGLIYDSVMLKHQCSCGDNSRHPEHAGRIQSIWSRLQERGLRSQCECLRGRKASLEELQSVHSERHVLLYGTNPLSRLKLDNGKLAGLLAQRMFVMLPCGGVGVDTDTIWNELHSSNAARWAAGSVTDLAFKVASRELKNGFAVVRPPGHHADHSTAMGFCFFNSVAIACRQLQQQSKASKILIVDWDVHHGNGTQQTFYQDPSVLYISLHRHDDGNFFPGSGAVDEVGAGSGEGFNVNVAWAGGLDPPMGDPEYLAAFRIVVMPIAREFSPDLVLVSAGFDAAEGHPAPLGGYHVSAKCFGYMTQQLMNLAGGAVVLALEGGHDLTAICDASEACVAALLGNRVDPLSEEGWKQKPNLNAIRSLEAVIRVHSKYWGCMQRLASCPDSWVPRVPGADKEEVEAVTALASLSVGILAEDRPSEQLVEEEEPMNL

[6] = molecular target: Histone deacetylase 11 (Homo sapiens) (UniProt Q96DB2); assay: Inhibition of recombinant HDAC11 (unknown origin) using AMC labeled AC-peptide as substrate at 10 uM incubated for 1 hr by fluorescence analysis
Sequence of Histone deacetylase 11 (Homo sapiens) (Q96DB2 whole entry): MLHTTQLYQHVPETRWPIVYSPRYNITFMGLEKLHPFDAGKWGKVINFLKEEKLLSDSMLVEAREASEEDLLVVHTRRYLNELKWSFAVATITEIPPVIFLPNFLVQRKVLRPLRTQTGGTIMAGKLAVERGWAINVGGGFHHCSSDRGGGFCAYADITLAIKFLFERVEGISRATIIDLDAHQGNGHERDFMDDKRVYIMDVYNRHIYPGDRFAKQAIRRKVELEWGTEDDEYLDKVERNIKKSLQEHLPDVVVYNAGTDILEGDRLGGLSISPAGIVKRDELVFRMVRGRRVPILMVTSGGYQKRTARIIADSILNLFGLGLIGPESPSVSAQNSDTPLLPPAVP

[7] = tested on: MV4-11; assay: Cytotoxicity against human MV4-11 cells after 72 hrs by MTT assay; type: functional, cell-based; details: MV4-11, 72 h
[8] = tested on: Ramos; assay: Cytotoxicity against human Ramos cells after 72 hrs by MTT assay; type: functional, cell-based
[9] = Cytotoxicity against human SKOV3 cells after 72 hrs by MTT assay; type: functional, cell-based; details: SK-OV-3, 72 h
[10] = Cytotoxicity against human SKBR3 cells after 72 hrs by MTT assay; type: functional, cell-based; details: SK-BR-3, 72 h
[11] = AUC (0 to infinity) in Sprague-Dawley rat at 12 mg/kg, iv administered by bolus injection measured up to 24 hrs by LC-MS/MS analysis; type: ADME, organism-based; parameters: dose 12 mg/kg, route intravenous, time infinity; details: in vivo
[12] = Cmax in Sprague-Dawley rat at 12 mg/kg, iv administered by bolus injection measured up to 24 hrs by LC-MS/MS analysis; type: ADME, organism-based; parameters: dose 12 mg/kg, route intravenous; details: in vivo
[13] = Systemic clearance in Sprague-Dawley rat at 12 mg/kg, po measured up to 24 hrs by LC-MS/MS analysis; type: ADME, organism-based; details: in vivo
[14] = AUC (0 to infinity) in Sprague-Dawley rat at 12 mg/kg, po measured up to 24 hrs by LC-MS/MS analysis; type: ADME, organism-based; parameters: dose 12 mg/kg, route oral, time infinity; details: in vivo
[15] = tested on: MV4-11; assay: Antitumor activity against human MV4-11 cells xenografted in NOD/SCID mouse assessed as tumor mass change at 50 mg/kg, iv q2d for 12 days; type: functional
[16] = Antitumor activity against human HCT116 cells xenografted in Balb/c nude mouse assessed as tumor mass change at 50 mg/kg, iv q2d for 9 days; type: functional, HCT-116
[17] = Antitumor activity against human HCT116 cells xenografted in Balb/c nude mouse assessed as tumor mass change at 25 mg/kg, po q2d for 8 days; type: functional, HCT-116
[18] = tested on: Mus musculus; assay: Toxicity in NOD/SCID mouse xenografted with human MV4-11 cells assessed as change in body weight at 50 mg/kg, iv q2d for 12 days; type: organism-based; details: in vivo, 288 h
[19] = tested on: Mus musculus; assay: Toxicity in Balb/c nude mouse xenografted with human HCT116 cells assessed as change in body weight at 25 mg/kg, po q2d for 8 days; type: organism-based, HCT-116; details: in vivo, 192 h
[20] = molecular target: T1, Histone deacetylase 5
Description: Inhibition of recombinant HDAC5 (unknown origin) using AMC labeled AC-peptide as substrate incubated for 1 hr by fluorescence analysis

[21] = molecular target: Histone deacetylase 7 (Homo sapiens, UniProt Q8WUI4)
Sequence of Histone deacetylase 7 (Q8WUI4 whole entry): as the sequence (Q8WUI4 whole entry) above
Description: Inhibition of recombinant HDAC7 (unknown origin) using AMC labeled AC-peptide as substrate incubated for 1 hr by fluorescence analysis

## COc1ccc(N(C)c2nc(C)nc3ccccc23)cc1OCCCC(=O)NO
[1]
  Activity: Non-toxic
[2]
  IC50: 45 nM
[3]
  IC50: > 10 µM
[4]
  inhibition: inactive
[5]
  inhibition: inactive
[6]
  inhibition: inactive
[7]
  IC50: 60 nM
[8]
  IC50: 71 nM
[9]
  IC50: 50 nM
[10]
  IC50: 22 nM
[11]
  AUC(0-inf): 2430 ng·h/mL
[12]
  Cmax: 2210 ng/mL
[13]
  CL/F: 215 mL/min/kg
[14]
  AUC(0-inf): 1240 ng·h/mL
[15]
  Activity: 55%
[16]
  Activity: 76.3%
[17]
  Activity: 60.4%
[18]
  Activity: -3.8%
[19]
  Activity: -3.8%
[20]
  IC50: > 10 µM
[21]
  IC50: > 10 µM

— ChEMBL document CHEMBL3774354, “Discovery of Selective Histone Deacetylase 6 Inhibitors Using the Quinazoline as the Cap for the Treatment of Cancer” (J Med Chem, 2016)
